Reference: EP2678315B1, “(Pyridin-4-yl)benzylamides as allosteric modulators of alpha 7 nAChR” (Janssen Pharmaceutica, N.V., priority 2011, dated 2012)
Where two headings read alike, the source gives them in different places.

Target: T1, human alpha 7-wt nAChR (Homo sapiens, UniProt P36544)
T1 construct: expressed in transfected cells
Test: Ca2+ flux imaging (FDSS) (protocol B)
Type: cell-based
Details: for EC50: read-out: pEC50 (converted); for Emax: read-out: % Efficacy
Protocol: Example D.1 : Ca^2+ flux imaging (FDSS) (protocol B)
• a) Assay buffer Hanks buffered saline solution (HBSS, Invitrogen, Belgium), supplemented with 10 mM HEPES (Invitrogen, Belgium), CaCl2 to a final concentration of 5 mM, 0.1 % Bovine serum albumin (Sigma-Aldrich NV, Belgium). • b) Calcium-sensitive dye - Fluo-4AM Fluo-4AM (Molecular Probes, USA) was dissolved in DMSO containing 10% Pluronic acid (Molecular Probes, USA) to give a stock solution which was diluted in assay buffer supplemented with 5 mM probenicid (Sigma, Aldrich NV, Belgium) to give a final concentration of 2 µM • c) 384-well plates Black-sided, transparent bottomed 384 well plates coated with poly-D-lysine, PDL pre-coated (Coming, Incorporated, USA) • d) Calcium flux measurement A Functional drug screening system (FDSS, Hamamatsu) was used to measure intracellular free-calcium flux signals.
Monolayers of human alpha 7-wt nAChR-expressing cells were grown in black-sided, transparent bottomed 384 well plates coated with PDL for 24 hours prior to loading with a fluorescent calcium indicator, fluo-4AM for up to 120 minutes.
PAM activity was detected in real time by applying the compounds to be tested to the loaded cells along with an alpha 7 nicotinic receptor agonist during constant monitoring of cellular fluorescence in a FDSS. Compounds giving peak fluorescent responses greater than the response due to agonist alone, were consideted to be alpha 7 nAChR PAMs. The alpha 7 nicotinic receptor agonist was choline, applied at a sub-maximal concentration of 100 µM. In a further setting of the present invention the compounds were applied prior to the alpha 7 nicotinic receptor agonist, in a particular 10 minutes prior to the agonist.
A control response to choline was calculated on each plate from the difference in peak in fluorescence in wells receiving either choline or assay buffer alone. Compounds of the present invention were tested at a concentration range from 0.01 µM to 30 µM. Compounds were considered to have an interesting activity when they potentiated the choline signal at least with 200 % when tested at a concentration of 30 µM (the efficacy of 100 µM choline was defined as 100% in the absence of a PAM). An EC50 (or pEC50) was determined as a concentration relating to half the maximal effect, when a clear sigmoidal curve with top plateau was obtained.

T1 sequence (P36544 23-502): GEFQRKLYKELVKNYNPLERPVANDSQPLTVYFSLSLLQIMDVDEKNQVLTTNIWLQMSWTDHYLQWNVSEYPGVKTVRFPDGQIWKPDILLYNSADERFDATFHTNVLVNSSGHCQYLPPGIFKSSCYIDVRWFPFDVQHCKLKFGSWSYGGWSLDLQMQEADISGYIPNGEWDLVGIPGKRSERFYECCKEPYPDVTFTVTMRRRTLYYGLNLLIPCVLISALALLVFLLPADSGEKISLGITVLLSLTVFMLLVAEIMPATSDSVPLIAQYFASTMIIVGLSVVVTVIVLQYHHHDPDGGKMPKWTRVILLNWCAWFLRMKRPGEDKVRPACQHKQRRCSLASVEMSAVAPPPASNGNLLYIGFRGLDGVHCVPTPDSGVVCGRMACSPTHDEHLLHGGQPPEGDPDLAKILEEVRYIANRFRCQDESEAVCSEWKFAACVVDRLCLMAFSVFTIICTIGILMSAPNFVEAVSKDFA

Row | EC50 (Ca2+ assay as described in D.1) | Emax (Ca2+ assay as described in D.1) | SMILES | Emax
1 | 295 nM |  | Cc1cc(-c2ccc(N3C[C@@H](C)O[C@@H](C)C3)c(F)c2CNC(=O)CC2CC2)cc(C)n1 [Compound 37] | 
2 | 575 nM |  | Cc1cc(-c2ccc(N3C[C@@H](C)O[C@@H](C)C3)c(F)c2CNC(=O)C(C)C)cc(C)n1 [Compound 41] | 
3 | 115 nM |  | Cc1cc(-c2ccc(N3CCO[C@H](C(F)(F)F)C3)c(F)c2CNC(=O)CC2CCC2)cc(C)n1 [Compound 70] | 
4 |  | 111% | Cc1cc(-c2ccc(N3CCOCC3)cc2CNC(=O)CC(F)(F)F)cc(C)n1 [Compound 28] | 
5 | 832 nM |  | Cc1cc(-c2ccc(N3C[C@@H](C)O[C@@H](C)C3)c(F)c2CNC(=O)c2conc2C)cc(C)n1 [Compound 39] | 
6 | 1170 nM |  | Cc1cc(-c2ccc(N3C[C@@H](C)O[C@@H](C)C3)c(F)c2CNC(=O)C2CC2)cc(C)n1 [Compound 42] | 
7 | 708 nM |  | Cc1cc(-c2ccc(C3C[C@@H](C)O[C@@H](C)C3)c(F)c2CNC(=O)c2cc(C)on2)cc(C)n1 (relative stereo) [Compound 62] | 
8 | 234 nM |  | Cc1cc(-c2ccc(N3CCO[C@@H](C(F)(F)F)C3)c(F)c2CNC(=O)c2cc(C)on2)cc(C)n1 [Compound 57] | 
9 | 79.4 nM |  | Cc1cc(-c2c(F)cc(N3C[C@@H](C)O[C@@H](C)C3)cc2CNC(=O)CC2CC2)ccn1 [Compound 87] | 
10 | 1230 nM |  | Cc1cc(-c2ccc(N3C[C@@H](C)O[C@@H](C)C3)cc2CNC(=O)c2cc(C)on2)ccn1 [Compound 10] | 
11 | 24 nM |  | Cc1cc(-c2ccc(N3C[C@@H](C)O[C@@H](C)C3)c(F)c2CNC(=O)CC(C)(C)C)cc(C)n1 [Compound 48] | 
12 | 209 nM |  | Cc1cc(-c2c(F)cc(N3C[C@@H](C)O[C@@H](C)C3)cc2CNC(=O)c2cc(C)on2)cc(C)n1 [Compound 75] | 
13 |  | 136% | Cc1cc(-c2c(F)cc(N3C[C@@H](C)O[C@@H](C)C3)cc2CNC(=O)CC(F)(F)F)cc(C)n1 [Compound 77] | 
14 | 316 nM |  | Cc1cc(-c2ccc(N3C[C@@H](C)O[C@@H](C)C3)c(F)c2CNC(=O)CCCC(F)(F)F)cc(C)n1 [Compound 44] | 
15 | 12.6 nM |  | Cc1cc(-c2c(F)cc(N3C[C@@H](C)O[C@@H](C)C3)cc2CNC(=O)CC(C)C)ccn1 [Compound 92] | 
16 | 132 nM |  | Cc1cc(-c2ccc(N3CCO[C@H](C(F)(F)F)C3)c(F)c2CNC(=O)CC(C)C)cc(C)n1 [Compound 68] | 
17 | 138 nM |  | Cc1cc(-c2ccc(N3C[C@@H](C)O[C@@H](C)C3)c(F)c2CNC(=O)CC2CCC2)cc(C)n1 [Compound 45] | 
18 | 309 nM |  | Cc1cc(-c2ccc(N3CCO[C@H](C(F)(F)F)C3)c(F)c2CNC(=O)CC2CC2)cc(C)n1 [Compound 64] | 
19 | 871 nM |  | Cc1cc(-c2ccc(C3C[C@@H](C)O[C@@H](C)C3)c(F)c2CNC(=O)C(C)C)cc(C)n1 (relative stereo) [Compound 61] | 
20 |  | 287% | Cc1cc(-c2ccc(N3C[C@@H](C)O[C@@H](C)C3)cc2CNC(=O)CC(F)(F)F)cc(C)n1 [Compound 7] | 
21 | 776 nM |  | Cc1cc(-c2ccc(N3CCO[C@H](C(F)(F)F)C3)c(F)c2CNC(=O)C2CC2)cc(C)n1 [Compound 69] | 
22 | 1580 nM |  | Cc1cc(-c2ccc(C3C[C@@H](C)O[C@@H](C)C3)c(F)c2CNC(=O)C2CC2)cc(C)n1 (relative stereo) [Compound 54] | 
23 | 155 nM |  | Cc1cc(-c2ccc(N3CCO[C@@H](C(F)(F)F)C3)c(F)c2CNC(=O)C(C)C)cc(C)n1 [Compound 56] | 
24 | 479 nM |  | Cc1cc(-c2ccc(N3C[C@@H](C)O[C@@H](C)C3)c(F)c2CNC(=O)c2cccc(Cl)c2F)cc(C)n1 [Compound 52] | 
25 | 14.8 nM |  | Cc1cc(-c2ccc(N3CCO[C@@H](C(F)(F)F)C3)c(F)c2CNC(=O)CC(C)C)cc(C)n1 [Compound 72] | 
26 | 83.2 nM |  | Cc1cc(-c2ccc(N3CCO[C@@H](C(F)(F)F)C3)c(F)c2CNC(=O)CC2CC2)cc(C)n1 [Compound 59] | 
27 | 32.4 nM |  | Cc1cc(-c2ccc(N3CCO[C@@H](C(F)(F)F)C3)c(F)c2CNC(=O)CC2CCC2)cc(C)n1 [Compound 71] | 
28 | 148 nM |  | Cc1cc(-c2ccc(N3C[C@@H](C)O[C@@H](C)C3)c(F)c2CNC(=O)c2cnc(Cl)cc2Cl)cc(C)n1 [Compound 51] | 

Second part, the molecule before the results:

Row | SMILES | EC50 (Ca2+ assay as described in D.1) | Emax (Ca2+ assay as described in D.1) | Emax
29 | Cc1cc(-c2ccc(N3CCOCC3)cc2CNC(=O)c2ccc(F)cc2C)ccn1 [Compound 31] | 479 nM |  | 576%
30 | Cc1cc(-c2c(F)cc(N3C[C@@H](C)O[C@@H](C)C3)cc2CNC(=O)C2CC2)cc(C)n1 [Compound 79] | 17.4 nM |  | 381%
31 | Cc1cc(-c2c(F)cc(N3C[C@@H](C)O[C@@H](C)C3)cc2CNC(=O)CC2CC2)cc(C)n1 [Compound 74] | 11.2 nM |  | 508%
32 | Cc1cc(-c2ccc(N3C[C@H](C(F)(F)F)C[C@H](C(F)(F)F)C3)cc2CNC(=O)C(C)C)cc(C)n1 [Compound 23] | 15.8 nM |  | 322%
33 | Cc1cc(-c2ccc(N3C[C@@H](C)O[C@@H](C)C3)cc2CNC(=O)c2ccc(F)cc2C)ccn1 [Compound 11] | 9.33 nM |  | 912%
34 | Cc1cc(-c2ccc(N3CCOCC3)cc2CNC(=O)c2cc(C)on2)cc(C)n1 [Compound 25] | 6170 nM |  | 654%
35 | Cc1cc(-c2ccc(N3CCCC(C(F)(F)F)C3)cc2CNC(=O)c2ccc(F)cc2C)cc(C)n1 (centres unmarked) [Compound 33] | 245 nM |  | 278%
36 | Cc1cc(-c2ccc(N3CCOCC3)cc2CNC(=O)c2ccc(F)cc2C)cc(C)n1 [Compound 27] | 57.5 nM |  | 419%
37 | Cc1cc(-c2ccc(N3C[C@H](C)C[C@H](C)C3)cc2CNC(=O)c2cc(C)on2)cc(C)n1 [Compound 18] | 288 nM |  | 136%
38 | Cc1cc(-c2ccc(N3CCOCC3)cc2CNC(=O)C(C)C)cc(C)n1 [Compound 29] | 813 nM |  | 256%
39 | Cc1cc(-c2ccc(N3C[C@@H](C)O[C@@H](C)C3)cc2CNC(=O)C(C)C)ccn1 [Compound 9] | 240 nM |  | 
40 | Cc1nocc1C(=O)NCc1cc(N2CCOCC2)ccc1-c1ccncc1 [Compound 138] |  | 386% | 
41 | Cc1cc(-c2ccc(N3C[C@@H](C)O[C@@H](C)C3)cc2CNC(=O)CC2CC2)ccn1 [Compound 13] | 282 nM |  | 915%
42 | Cc1cc(-c2ccc(C3C[C@@H](C)O[C@@H](C)C3)c(F)c2CNC(=O)CC(C)C)cc(C)n1 (relative stereo) [Compound 55] | 229 nM |  | 890%
43 | Cc1cc(-c2ccc(N3C[C@@H](C)O[C@@H](C)C3)cc2CNC(=O)C(C)C2CC2)cc(C)n1 (relative stereo) [Compound 8] | 24 nM |  | 353%
44 | Cc1cc(-c2c(F)cc(N3C[C@@H](C)O[C@@H](C)C3)cc2CNC(=O)c2cc(C)on2)ccn1 [Compound 90] | 525 nM |  | 
45 | Cc1cc(-c2ccc(N3C[C@@H](C)O[C@@H](C)C3)cc2CNC(=O)C2CC2)ccn1 [Compound 14] | 589 nM |  | 
46 | Cc1cc(-c2ccc(N3CCO[C@H](C(F)(F)F)C3)c(F)c2CNC(=O)c2conc2C)cc(C)n1 [Compound 66] | 398 nM |  | 649%
47 | Cc1cc(-c2c(F)cc(N3C[C@@H](C)O[C@@H](C)C3)cc2CNC(=O)CC(C)(C)C)cc(C)n1 [Compound 84] | 9.33 nM |  | 686%
48 | Cc1cc(-c2ccc(N3CCCC(C(F)(F)F)C3)cc2CNC(=O)CC2CC2)cc(C)n1 (centres unmarked) [Compound 35] | 26.3 nM |  | 389%
49 | Cc1cc(-c2c(F)cc(N3C[C@@H](C)O[C@@H](C)C3)cc2CNC(=O)C(C)C)cc(C)n1 [Compound 78] | 21.9 nM |  | 707%
50 | Cc1cc(-c2ccc(N3CCOCC3)cc2CNC(=O)c2conc2C)ccn1 [Compound 143] | 8710 nM |  | 130%
51 | Cc1cc(-c2ccc(N3C[C@H](C(F)(F)F)C[C@H](C(F)(F)F)C3)cc2CNC(=O)c2conc2C)cc(C)n1 [Compound 19] | 50.1 nM |  | 266%
52 | Cc1cc(-c2c(F)cc(N3CCCC(C(F)(F)F)C3)cc2CNC(=O)c2conc2C)cc(C)n1 (centres unmarked) [Compound 98] |  | 119% | 
53 | Cc1cc(-c2ccc(N3CCOCC3)cc2CNC(=O)c2conc2C)cc(C)n1 [Compound 26] | 457 nM |  | 202%
54 | Cc1cc(-c2c(F)cc(N3CCCC(C(F)(F)F)C3)cc2CNC(=O)c2cc(C)on2)cc(C)n1 (centres unmarked) [Compound 94] | 195 nM |  | 428%
55 | Cc1cc(-c2ccc(N3CCO[C@@H](C(F)(F)F)C3)c(F)c2CNC(=O)C2CC2)cc(C)n1 [Compound 73] | 741 nM |  | 878%
56 | Cc1cc(-c2ccc(N3CC4CCC(C3)O4)cc2CNC(=O)C(C)C)cc(C)n1 [Compound 129] | 724 nM |  | 296%
57 | Cc1cc(-c2ccc(N3CCCC(C(F)(F)F)C3)cc2CNC(=O)c2conc2C)cc(C)n1 (centres unmarked) [Compound 32] |  | 72.4% | 
